Where only a bound is given, the exact number is not on record here.

The assay concerns the target T1, hFXR (Homo sapiens, UniProt Q96RI1).
T1 construct: expressed in transfected cells; host or cells: CV-1 cells
T1 sequence (Q96RI1 1-486): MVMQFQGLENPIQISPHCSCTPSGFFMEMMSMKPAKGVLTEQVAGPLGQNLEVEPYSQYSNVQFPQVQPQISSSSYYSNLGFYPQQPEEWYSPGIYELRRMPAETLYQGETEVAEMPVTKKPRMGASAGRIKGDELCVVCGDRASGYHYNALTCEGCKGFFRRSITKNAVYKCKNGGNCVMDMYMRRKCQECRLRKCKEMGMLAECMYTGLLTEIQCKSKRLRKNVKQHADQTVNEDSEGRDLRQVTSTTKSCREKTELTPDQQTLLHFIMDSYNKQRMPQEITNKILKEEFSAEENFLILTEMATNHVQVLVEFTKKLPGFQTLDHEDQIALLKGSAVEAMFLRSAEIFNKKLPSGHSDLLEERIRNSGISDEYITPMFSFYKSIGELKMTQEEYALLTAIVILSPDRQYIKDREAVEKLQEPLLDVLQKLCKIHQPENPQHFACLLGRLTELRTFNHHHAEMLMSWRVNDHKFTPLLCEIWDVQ
T1 sequence (P19793 1-462 partner): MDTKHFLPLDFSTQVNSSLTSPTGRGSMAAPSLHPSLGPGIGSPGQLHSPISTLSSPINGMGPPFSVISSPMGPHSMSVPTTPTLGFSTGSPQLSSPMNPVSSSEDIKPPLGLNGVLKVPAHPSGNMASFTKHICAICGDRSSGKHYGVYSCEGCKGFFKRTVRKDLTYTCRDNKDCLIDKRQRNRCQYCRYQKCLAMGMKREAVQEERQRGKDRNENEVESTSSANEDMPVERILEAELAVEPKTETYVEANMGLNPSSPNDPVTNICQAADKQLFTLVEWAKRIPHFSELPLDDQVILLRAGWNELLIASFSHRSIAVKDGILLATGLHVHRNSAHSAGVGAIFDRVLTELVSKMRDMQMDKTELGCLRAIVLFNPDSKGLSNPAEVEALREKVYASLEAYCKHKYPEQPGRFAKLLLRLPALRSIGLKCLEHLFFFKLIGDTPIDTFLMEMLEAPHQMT
Put plainly: In Vitro FXR Assay (TK): TK-ECRE-luc reporter in transfected CV-1 cells. Type of assay: cell-based. To be noted: 18 hrs, luminescence, maximum efficacy of <25% of the Fexarmine control classified as '+'. Summed up:
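CV-1 cells transiently co-transfected with hFXR, hRXR, TK-ECRE-luc and pCMX-YFP plasmids in charcoal-stripped serum medium. Serially diluted compounds added, cells incubated 18 h at 37° C, then lysed and luminescence read.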
As for `COc1ccc([C@H]2CC[C@H](CN(c3cccc(-c4cnc(C5CC5)s4)c3)C(=O)[C@H]3CC[C@H](CO)CC3)CC2)cc1C` [Compound 15.02, trans-N-(3-(2-Cyclopropylthiazol-5-yl)phenyl)-4-(hydroxymethyl)-N-((trans-4-(4-methoxy-3-methylphenyl)cyclohexyl)methyl) cyclohexanecarboxamide], the EC50 is no more than 250 nM.
Regarding `COc1ccc([C@H]2CC[C@H](CN(c3cc(-c4cnn(C(C)C)c4)ccn3)C(=O)[C@H]3CC[C@H](CO)CC3)CC2)nc1C` [Compound 15.03, trans-4-(Hydroxymethyl)-N-(4-(1-isopropyl-1H-pyrazol-4-yl)pyridin-2-yl)-N-((trans-4-(5-methoxy-6-methylpyridin-2-yl)cyclohexyl)methyl) cyclohexanecarboxamide], the EC50 is no more than 250 nM.
The figure for `COc1ccc([C@H]2CC[C@H](CN(c3cc(-c4coc(C5CC5)n4)ccn3)C(=O)[C@H]3CC[C@H](CO)CC3)CC2)nc1C` [Compound 15.04, trans-N-(4-(2-Cyclopropyloxazol-4-yl)pyridin-2-yl)-4-(hydroxymethyl)-N-((trans-4-(5-methoxy-6-methylpyridin-2-yl)cyclohexyl)methyl) cyclohexanecarboxamide] is no more than 250 nM; for `CN(C)c1ccc([C@H]2CC[C@H](CN(c3cccc(-c4cnc(C5CC5)s4)c3)C(=O)[C@H]3CC[C@H](C(=O)O)CC3)CC2)cn1` [Compound 16, trans-4-((3-(2-Cyclopropylthiazol-5-yl)phenyl)((trans-4-(6-(dimethylamino)pyridin-3-yl)cyclohexyl)methyl)carbamoyl)cyclohexanecarboxylic acid] it is no more than 250 nM.
The value for `COc1ccc([C@H]2CC[C@H](CN(c3cccc(-c4cnc(C5CC5)s4)c3)C(=O)[C@H]3CC[C@H](C(=O)O)CC3)CC2)cc1C` [Compound 17, trans-4-((3-(2-Cyclopropylthiazol-5-yl)phenyl)((trans-4-(4-methoxy-3-methylphenyl)cyclohexyl)methyl)carbamoyl)cyclohexanecarboxylic acid] was no more than 250 nM; that for `COc1ncc(-c2cccc(N(C[C@H]3CC[C@H](c4ccc(OC)c(C)c4)CC3)C(=O)[C@H]3CC[C@H](C(=O)O)CC3)c2)s1` [Compound 17.01, trans-4-(((trans-4-(4-Methoxy-3-methylphenyl)cyclohexyl)methyl)(3-(2-methoxythiazol-5-yl)phenyl)carbamoyl)cyclohexanecarboxylic acid] was no more than 250 nM; that for `COc1ncc(-c2cccc(N(C[C@H]3CC[C@H](c4ccc(OC)c(C)c4)CC3)C(=O)C34CCC(C(=O)O)(CC3)CC4)c2)s1` [Compound 17.02, 4-(((trans-4-(4-Methoxy-3-methylphenyl)cyclohexyl)methyl)(3-(2-methoxythiazol-5-yl)phenyl)carbamoyl)bicyclo[2.2.2]octane-1-carboxylic acid] was no more than 250 nM.
`COc1ccc([C@H]2CC[C@H](CN(c3cccc(-c4cnc(C5CC5)s4)c3)C(=O)[C@H]3CC[C@H](C(=O)O)CC3)CC2)cc1Cl` [Compound 17.03, trans-4-(((trans-4-(3-Chloro-4-methoxyphenyl)cyclohexyl)methyl)(3-(2-cyclopropylthiazol-5-yl)phenyl)carbamoyl)cyclohexanecarboxylic acid]: the EC50 is no more than 250 nM.
The figure for `Cn1nc(F)c2cc([C@H]3CC[C@H](CN(c4cccc(-c5cnc(C6CC6)s5)c4)C(=O)[C@H]4CC[C@H](C(=O)O)CC4)CC3)ccc21` [Compound 17.04, trans-4-((3-(2-Cyclopropylthiazol-5-yl)phenyl)((trans-4-(3-fluoro-1-methyl-1H-indazol-5-yl)cyclohexyl)methyl)carbamoyl) cyclohexanecarboxylic acid] is no more than 250 nM.
The value for `COc1ccc(C23CCC(CN(c4cccc(-c5cnc(C6CC6)s5)c4)C(=O)[C@H]4CC[C@H](C(=O)O)CC4)(CC2)CC3)cc1C` [Compound 17.05, trans-4-((3-(2-Cyclopropylthiazol-5-yl)phenyl)((4-(4-methoxy-3-methylphenyl)bicyclo[2.2.2]octan-1-yl)methyl)carbamoyl) cyclohexanecarboxylic acid] was no more than 250 nM; that for `CN(C)c1ccc(C23CCC(CN(c4cccc(-c5cnc(C6CC6)s5)c4)C(=O)[C@H]4CC[C@H](C(=O)O)CC4)(CC2)CC3)cn1` [Compound 17.06, trans-4-((3-(2-Cyclopropylthiazol-5-yl)phenyl)((4-(6-(dimethylamino)pyridin-3-yl)bicyclo[2.2.2]octan-1-yl)methyl)carbamoyl) cyclohexanecarboxylic acid] was no more than 250 nM.
The value for `COc1ccc(C23CCC(CN(c4cc(-c5cnc(C6CC6)s5)ccn4)C(=O)[C@H]4CC[C@H](C(=O)O)CC4)(CC2)CC3)cc1C` [Compound 17.07, trans-4-((4-(2-Cyclopropylthiazol-5-yl)pyridin-2-yl)((4-(4-methoxy-3-methylphenyl)bicyclo[2.2.2]octan-1-yl)methyl)carbamoyl) cyclohexanecarboxylic acid] was no more than 250 nM.
`COc1ccc([C@H]2CC[C@H](CN(c3cccc(-c4cnc(C5CC5)s4)c3)C(=O)[C@H]3CC[C@H](C(=O)O)CC3)CC2)nc1C` [Compound 17.08, trans-4-((3-(2-Cyclopropylthiazol-5-yl)phenyl)((trans-4-(5-methoxy-6-methylpyridin-2-yl)cyclohexyl)methyl)carbamoyl) cyclohexanecarboxylic acid] returned a half-maximal effective concentration (EC50) of no more than 250 nM.
The figure for `COc1ccc([C@H]2CC[C@H](CN(c3cc(-c4cnc(C5CC5)s4)ccn3)C(=O)[C@H]3CC[C@H](C(=O)O)CC3)CC2)cc1C` [Compound 17.09, trans-4-((4-(2-Cyclopropylthiazol-5-yl)pyridin-2-yl)((trans-4-(4-methoxy-3-methylphenyl)cyclohexyl)methyl)carbamoyl)cyclohexanecarboxylic acid] is no more than 250 nM; for `COc1ccc([C@H]2CC[C@H](CN(c3cc(-c4cnc(C5CC5)s4)ccn3)C(=O)[C@H]3CC[C@H](C(=O)O)CC3)CC2)nc1C` [Compound 17.10, trans-4-((4-(2-Cyclopropylthiazol-5-yl)pyridin-2-yl)((trans-4-(5-methoxy-6-methylpyridin-2-yl)cyclohexyl)methyl)carbamoyl) cyclohexanecarboxylic acid] it is 250 to 1000 nM; for `COc1ccc([C@H]2CC[C@H](CN(c3cccc(-c4cnc(C5CC5)s4)c3)C(=O)[C@H]3CC[C@H](C(=O)O)CC3)CC2)cc1C#N` [Compound 17.11, trans-4-(((trans-4-(3-Cyano-4-methoxyphenyl)cyclohexyl)methyl)(3-(2-4-cyclopropylthiazol-5-yl)phenyl)carbamoyl)cyclohexanecarboxylic acid] it is no more than 250 nM.
The value for `COc1ccc([C@H]2CC[C@H](CN(c3cccc(-c4cnc(C5CC5)s4)c3)C(=O)[C@H]3CC[C@H](C(=O)O)CC3)CC2)nc1C#N` [Compound 17.12, trans-4-(((trans-4-(6-Cyano-5-methoxypyridin-2-yl)cyclohexyl)methyl)(3-(2-cyclopropylthiazol-5-yl)phenyl)carbamoyl) cyclohexanecarboxylic acid] was no more than 250 nM; that for `COc1ccc([C@H]2CC[C@H](CN(c3cccc(-c4cnn(C5CC5)c4)c3)C(=O)[C@H]3CC[C@H](C(=O)O)CC3)CC2)cc1C` [Compound 17.13, trans-4-((3-(1-Cyclopropyl-1H-pyrazol-4-yl)phenyl)((trans-4-(4-methoxy-3-methylphenyl)cyclohexyl)methyl)carbamoyl)cyclohexanecarboxylic acid] was no more than 250 nM; that for `CN(C)c1ccc([C@H]2CC[C@H](CN(c3cccc(-c4cnn(C5CC5)c4)c3)C(=O)[C@H]3CC[C@H](C(=O)O)CC3)CC2)cn1` [Compound 17.14, trans-4-((3-(1-Cyclopropyl-1H-pyrazol-4-yl)phenyl)((trans-4-(6-(dimethylamino)pyridin-3-yl)cyclohexyl)methyl)carbamoyl) cyclohexanecarboxylic acid] was no more than 250 nM.
In the case of `COc1ccc([C@H]2CC[C@H](CN(c3cccc(-c4cnn(C5CC5)c4)c3)C(=O)[C@H]3CC[C@H](C(=O)O)CC3)CC2)cc1Cl` [Compound 17.15, trans-4-(((trans-4-(3-Chloro-4-methoxyphenyl)cyclohexyl)methyl)(3-(1-cyclopropyl-1H-pyrazol-4-yl)phenyl)carbamoyl) cyclohexanecarboxylic acid], the concentration for a half-maximal effect (EC50) was no more than 250 nM.

A word on the EC50: it is the concentration giving half of the maximal effect. A higher EC50 goes with lower potency in that assay.

Source of the values: patent US20220089575A1, “FARNESOID X RECEPTOR AGONISTS AND USES THEREOF” (Metacrine, Inc., priority 2017, published 2022).
